Data taken from patent publication US6867305B2, “Synthesis of epothilones, intermediates thereto and analogues thereof” (Sloan-Kettering Institute for Cancer Research, priority 1996, dated 2005).
Like-named read-outs stand apart in the source and are kept apart here.

Tests used:
[1] = system: MCF-7/Adr; assay: Tumor cell growth inhibition in vitro; assay type: cell-based, human; conditions: MCF-7/Adr
Experimental: (§1) The cells were cultured at an initial density of 2-5×10^4 cells per ml. […] For solid tumor cells growing in a monolayer (such as MCF-7/Adr), cytotoxicitiy of the drug was determined in 96-well microtiter plates by using the sulforhodamine B method as described by Skehan et al (23) for measuring the cellular protein content. For cells that were grown in suspension (such as CCRF-CEM and its sublines), cytotoxicitiy was measured by using the 2,-3-bis(2-methoxy-4-nitro-5-sulfophenyl)-5carboxanilide)-2H terazodium hydroxide (XTT)-microculture tetrazonium method (24) in duplicate in 96-well microtiter plates. For both methods, the absorbance of each well was measured with a microplate reader (EL-340, Bio-Tek, Burlington, Vt.). Each run entailed six or seven concentrations of the tested drugs. Dose-effect relationship data were analyzed with the median-effect plot (25) by using a previously described computer program (26).

[2] = system: PC-3 prostate adenocarcinoma xenograft; assay: Human tumor xenograft in nude mice; assay type: in vivo; conditions: PC-3, i.v. or i/p.
Experimental: (§2) Depending on the tumor type, treatment started on day 10 to day 21 when subcutaneous tumor size reached 35-200 mm^3, except otherwise indicated. Tumor size and body-weight were recorded every other day (Q2D) and, for humane reasons, the animals were sacrificed when tumor size reached ≧10% of body-weight. Each group, including untreated control, consisted of 3-5 animals unless otherwise indicated.
(§3) Athymic nude mice bearing the nu/nu gene were used for all human tumor xenografts. Outbred, Swiss-background mice were obtained from Charles River Laboratories. Male mice 8 weeks or older weighing 22 g and up were used for most experiments. The drug was administered via the tail vein for 6 hr.-i.v. infusion. Each individual mouse was confined in a perforated Falcon polypropylene tube restrainer for drug administration. Tumor volume was assessed by measuring length×width×height (or width) using a caliper. The programmable Harvard PHD2000 syringe pump (Harvard Apparatus) with multi-track was used for i.v. infusion. […] All animal studies were conducted in accordance with the guidelines of the National Institutes of Health “Guide for the Care and Use of Animals” and the protocol approved by the Memorial Sloan-Kettering Cancer Center's Institutional Animal Care and Use Committee. In keeping with the policy of this committee for the humane treatment of tumor-bearing animals, mice were euthanized when tumors reached ≧10% of their total body weight.
(§4) Human tumor cells (5×10^6) or tumor tissue (30-50 mg) were implanted s.c. flank in nu/nu mice (Charles River Laboratories, Wilmington, Mass.). When tumor grew to a specified size, treatment was started by every-other day×5 with 6 hr i.v.-infusion, unless otherwise indicated. Tumor volume was measured with calipers in three dimensions (length×width×height or width). Body-weight changes and lethality were monitored every other day.

[3] = system: K562 chronic myelocytic leukemia xenograft; assay: Human tumor xenograft in nude mice; assay type: in vivo
Experimental: FIG. 34 depicts tumor size in nude mice bearing human leukemia […] tumor following 6 mg/kg C-15-Aza-EpoB, Q2D×6 and 30 mg/kg dEpoF, Q2ED×6 (i.v. infusion […].). K562 tumor cells (1×10^7 in 0.2 mL) were inoculated to nude mice on day 0. Mice were treated with 6 mg/kg aza-EpoB, 6 h-i.v. infusion on days 20, 22, 24, 26, 28 and 30 (Δ, n=3). The same group of mice were then treated with 30 mg/kg dEpoF, 6 h-i.v. infusion on days 42, 44, 46, 48, 52, and 54 (Δ, n=3). […] The control mice (∘, n=3) received vehicle only.
K562 tumor cells (1×10^7, in 0.2 ml/mouse) were implanted s.c. on day 0. […] The control mice (∘, n=4) received vehicle, Cremophor-ethanol (1:1), only. The vertical bars indicate mean tumor size in mm^3±S.E.
as §2, §3, §4

[4] = system: MCF-7/Adr mammary xenograft; assay: Human tumor xenograft in nude mice; assay type: in vivo
[5] = system: MCF-7 human mammary adenocarcinoma; assay: Tumor cell growth inhibition in vitro; assay type: cell-based; conditions: read-out: IC50
Experimental: as §1

[6] = system: HCT-116 colon carcinoma xenograft; assay: Human tumor xenograft in nude mice; assay type: in vivo; conditions: HCT-116, i.v. infusion
Description: Therapeutic efficacy of cancer chemotherapeutic agents varies with various factors including the tumor models used and the dosage of drug and schedules and routes of administration. […] In the present studies, we intended to compare the therapeutic effects of drugs near their maximal tolerated doses by measuring the extent of body-weight decreases and/or lethality.
as §2, §3, §4

[7] = system: tubulin; assay: Tubulin-binding / tubulin polymerization assay; assay type: biochemical
[8] = system: CCRF-CEM/VBL; assay: Relative potency in vitro, very highly resistant MDR cells; assay type: cell-based, human
Experimental: (§5) The cells were cultured at an initial density of 2-5×10^4 cells per ml. They were maintained in a 5% CO2-humidified atmosphere at 37° C. in RPMI mediun 1640 (GIBCO/BRL) containing penicillin (100 units/ml), streptomycin (100 μg/ml) (GIBCO/BRL), and 5% heat-inactivated fetal bovine serum. For solid tumor cells growing in a monolayer (such as MCF-7/Adr), cytotoxicitiy of the drug was determined in 96-well microtiter plates by using the sulforhodamine B method as described by Skehan et al (23) for measuring the cellular protein content. For cells that were grown in suspension (such as CCRF-CEM and its sublines), cytotoxicitiy was measured by using the 2,-3-bis(2-methoxy-4-nitro-5-sulfophenyl)-5carboxanilide)-2H terazodium hydroxide (XTT)-microculture tetrazonium method (24) in duplicate in 96-well microtiter plates. For both methods, the absorbance of each well was measured with a microplate reader (EL-340, Bio-Tek, Burlington, Vt.). Each run entailed six or seven concentrations of the tested drugs. Dose-effect relationship data were analyzed with the median-effect plot (25) by using a previously described computer program (26).

[9] = system: CCRF-CEM human T-cell acute lymphoblastic leukemia cells; assay: Tumor cell growth inhibition in vitro (XTT, 72 h); assay type: cell-based; conditions: CCRF-CEM
Experimental: The fresh medium containing each drug was replenished every 7-14 days. […] In each case ,the drug-exposed cells were resuspended in fresh media for a minimum of 4 days before the experiments for the cell-growth inhibition was carried out.
as §5

[10] = system: MX-1 mammary carcinoma xenograft; conditions: MX-1, i.p., ref 19 (Table 4)

`COc1cccc2c1C(=O)c1c(O)c3c(c(O)c1C2=O)C[C@@](O)(C(=O)CO)C[C@@H]3O[C@H]1C[C@H](N)[C@H](O)[C@H](C)O1` [Adriamycin, doxorubicin, reference compound] was tested, and the IC50 ([1]; Homo sapiens, NCI/ADR-RES) was 0.28 µM, the IC50 [1] was 0.316 µM and the “Therapeutic Effect Rank Order” value [2] was “Taxol>dEpoB>>Adriamycin”. The “Therapeutic Effect Rank Order” value ([3]; K562, i.v. infusion, FIG. 3 & 4) was “dEpoB>>>VBL> Taxol> Adriamycin”, the therapeutic effect ([3]; K562, dEpoB 30 mg/kg, Taxol 20 mg/kg 6 hr i.v. infusion, Adriamycin 3 mg/kg, vinblastine 2.5 mg/kg i.v., every other day from day 20 (FIG. 36)) was “only partial curative or remissive effects” and the “Therapeutic Effect Rank Order” value ([4]; i.p., ref 19 (Table 5)) was “dEpoB>Camptothecin>Adriamycin>Taxol”. For the same molecule, the “Therapeutic Effect Rank Order” value ([4]; i.v. infusion) was “dEpoB>>VP-16, Taxol>VBL, Adriamycin”, the IC50 ([5]; Homo sapiens, MCF7, MCF-7) was 0.081 µM and the IC50 ([5]; MCF-7) was 0.09 µM.
For `CCc1c2c(nc3ccc(OC(=O)N4CCC(N5CCCCC5)CC4)cc13)-c1cc3c(c(=O)n1C2)COC(=O)[C@]3(O)CC` [CPT-11, Irinotecan, reference compound], the “Therapeutic Effect Rank Order” value [6] was “Taxol, CPT-11≈dEpoB, dEpoF”.
`C/C1=C/CC(/C(C)=C/c2csc(COC(=O)c3c(F)c(F)c(N=[N+]=[N-])c(F)c3F)n2)OC(=O)CC(O)C(C)(C)C(=O)C(C)C(O)[C@@H](C)CCC1` (stereo partly drawn) [compound 66] was tested, and the “induction of tubulin polymerization” value [7] was “did not induce tubulin polymerization”.
`C/C1=C/C[C@@H](/C(C)=C/c2csc(C=O)n2)OC(=O)C[C@H](O)C(C)(C)C(=O)[C@H](C)[C@@H](O)[C@@H](C)CCC1` [21-oxo-dEpoB, 21-oxo-desoxyepothilone B] was tested, and the “potency relative to dEpoB (times less potent)” value ([8]; MDR CCRF-CEM/VBL cells) was 5.1 ×, the “Fold of Resistance (B)/(A)” value ([8]; [IC50 CCRF-CEM/VBL]/[IC50 CCRF-CEM]) was 11.9 x and the IC50 ([8]; very highly resistant MDR CCRF-CEM/VBL cells, read-out: CCRF-CEM/VBL IC50) was 0.326 µM. The “potency relative to dEpoB (times less potent)” value [9] was “about 3.7 ×” and the IC50 ([9]; 72 h incubation, read-out: IC50) was 0.027 µM.
`CC[C@@]1(O)C(=O)OCc2c1cc1n(c2=O)Cc2cc3ccccc3nc2-1` [Camptothecin, camptothecin, reference compound] was tested, and the “Therapeutic Effect Rank Order” value ([4]; i.p., ref 19 (Table 5)) was “dEpoB>Camptothecin>Adriamycin>Taxol” and the “Therapeutic Effect Rank Order” value [10] was “dEpoB>Camptothecin>Taxol>VBL, EpoB”.
